Test results from patent US9546153B2, “Bicyclic heterocycle substituted pyridyl compounds useful as kinase modulators” (BRISTOL-MYERS SQUIBB COMPANY, priority 2012, dated 2017).

Test system: TLR2 induced IL-6 in peripheral blood mononuclear cells (PBMCs)
Assay: PBMC TLR2 Induced IL-6 Assay
Type: cell-based, human
Settings: Homo sapiens, PBMC, 5 h, human PBMCs, 10 μg/ml lipoteichoic acid for 5 hours, IL-6 by ELISA; EC50 determinations are indicated with an asterisk; read-out: Cell EC50 (asterisk)
Experimental: Peripheral blood mononuclear cells (PBMCs) were isolated from human blood containing the anti-coagulant EDTA (2.5 mM) by centrifugation over a FICOLL® gradient. PBMCs (250000 cells/well) were cultured in assay media (RPMI with 10% heat inactivated FCS) with compounds for 30 minutes at 37° C. in a 5% CO2 incubator. Following pretreatment with compounds, cells were stimulated for 5 hours with 10 μg/ml lipoteichoic acid (Invivogen, San Diego, Calif.), a TLR2 agonist. At the end of the culture, plates were centrifuged at 1800 rpm for 10 minutes to pellet the cells. Supernatants were harvested and analyzed for IL-6 levels by ELISA (BD Biosciences, San Jose, Calif.). Inhibition was calculated as either an IC50 or EC50. EC50 determinations are indicated with an asterisk.

For `CC(C)(O)[C@H](F)CNC(=O)c1cnc(Nc2nc3ccnn3cc2F)cc1N[C@H]1CCC[C@H]1F` [Example 488], the EC50 was 192 nM.

Same assay, conditions: Homo sapiens, PBMC, 5 h, human PBMCs, 10 μg/ml lipoteichoic acid for 5 hours, IL-6 by ELISA; value without asterisk; read-out: Cell IC50

Going from `O=C(NC[C@@H](F)CO)c1cnc(Nc2ccc3[nH]c(=O)sc3c2)cc1NC1CCCC1` [Example 6] to `CC(C)(O)[C@H](F)CNC(=O)c1cnc(Nc2ccc3[nH]c(=O)sc3c2)cc1NC1CCCC1` [Example 34], the IC50 falls from 231 nM to 152 nM (1.5-fold).

Compared with `O=C(NC[C@@H](F)CO)c1cnc(Nc2ccc3ncsc3c2)cc1NC1CC1` [Example 7], `CC(C)(O)[C@H](F)CNC(=O)c1cnc(Nc2ccc3ncsc3c2)cc1NC1CCC1` [Example 46] is 4-fold lower in IC50: 732 nM for the first, 183 nM for the second. The second is the more potent here.

Going from `CC(C)Nc1cc(Nc2ccc3ncsc3c2)ncc1C(=O)NC[C@@H](F)C(O)(C1CC1)C(F)(F)F` (stereo partly drawn) [Example 30] to `CC(C)(O)[C@H](F)CNC(=O)c1cnc(Nc2ccc3ncsc3c2)cc1NCC(F)(F)F` [Example 84], the IC50 rises from 228 nM to 501 nM (2.2-fold). The first is the more potent here.

`CC(C)Nc1cc(Nc2ccc3[nH]c(=O)sc3c2)ncc1C(=O)NC[C@@H](F)C(C)(C)O` [Example 40] and `CC(C)Nc1cc(Nc2ccc3[nH]c(=O)oc3c2)ncc1C(=O)NC[C@@H](F)C(C)(C)O` [Example 393] are within 1.5-fold of each other in IC50: 503 nM for the first, 392 nM for the second.

First: CC(C)(O)[C@H](F)CNC(=O)c1cnc(Nc2ccc3ncsc3c2)cc1N[C@@H](c1cccc(F)c1)[C@H](O)CO [Example 44]
Second: CC(C)(O)[C@H](F)CNC(=O)c1cnc(Nc2ccc3ncsc3c2)cc1N[C@@H](c1cc(Cl)cc(Cl)c1)[C@H](O)CO [Example 77]
The IC50 of the first is 1.9-fold higher: 699 nM for the first, 377 nM for the second.

Compared with `CC(C)Nc1cc(Nc2ccc3ncccc3c2)ncc1C(=O)NC[C@@H](F)C(C)(C)O` [Example 47], `CC(C)Nc1cc(Nc2ccc3nscc3c2)ncc1C(=O)NC[C@@H](F)C(C)(C)O` [Example 56] is 1.7-fold lower in IC50: 571 nM for the first, 330 nM for the second.

First: CC(C)(O)[C@H](F)CNC(=O)c1cnc(Nc2ccc3ncsc3c2)cc1NCC1CC1 [Example 62]
Second: CC(C)(O)[C@H](F)CNC(=O)c1cnc(Nc2ccc3ncsc3c2)cc1NC1CCCC1O (stereo partly drawn) [Example 335]
The IC50 of the first is 2.1-fold higher: 288 nM for the first, 135 nM for the second. The second is the more potent here.

`CC(C)(O)[C@H](F)CNC(=O)c1cnc(Nc2ccc3nonc3c2)cc1NC1CC1` [Example 80] and `CC(C)(O)[C@H](F)CNC(=O)c1cnc(Nc2ccc3nonc3c2)cc1NC1CCOCC1` [Example 99] are within 1.5-fold of each other in IC50: 271 nM for the first, 258 nM for the second.

Compared with `CC(C)(O)[C@H](F)CNC(=O)c1cnc(Nc2ccc3ncncc3c2)cc1NC1CC1` [Example 81], `CC(C)(O)[C@H](F)CNC(=O)c1cnc(Nc2ccc3ncncc3c2)cc1NC1CCCC1F` (stereo partly drawn) [Example 345] is 2.5-fold higher in IC50: 100 nM for the first, 246 nM for the second. The first is the more potent here.

`CC(C)(O)[C@H](F)CNC(=O)c1cnc(Nc2ccc3ccncc3c2)cc1NC1CC1` [Example 132] and `CC(C)(O)[C@H](F)CNC(=O)c1cnc(Nc2nc3ccnn3cc2F)cc1NC1CC1` [Example 269] are within 1.5-fold of each other in IC50: 350 nM for the first, 445 nM for the second.

Compared with `N#CCNC(=O)c1cnc(Nc2ccc3ncsc3c2)cc1NC1CCCC1` [Example 153], `CC(C)(O)CCNC(=O)c1cnc(Nc2ccc3ncsc3c2)cc1N[C@H]1CC[C@@H](F)CC1` [Example 174] is 3.4-fold lower in IC50: 510 nM for the first, 150 nM for the second. The second is the more potent here.

First: CC(C)CCNc1cc(Nc2ccc3ncsc3c2)ncc1C(=O)NC[C@@H](F)C(C)(C)O [Example 163]
Second: CC(C)CCNC(=O)c1cnc(Nc2ccc3ncsc3c2)cc1NC(C)C [Example 210]
The IC50 of the first is 2.4-fold lower: 230 nM for the first, 551 nM for the second. The first is the more potent here.

`CC(C)Nc1cc(Nc2ccc3ncsc3c2)ncc1C(=O)NCC[C@@H](C)NC(=O)N1CCOCC1` [Example 182] and `CC(C)Nc1cc(Nc2ccc3ncsc3c2)ncc1C(=O)N[C@H]1CCN(S(C)(=O)=O)C1` [Example 215] are within 1.5-fold of each other in IC50: 508 nM for the first, 566 nM for the second.

Going from `CC(C)(O)[C@H](F)CNC(=O)c1cnc(Nc2ccn3nccc3n2)cc1NCC(F)(F)F` [Example 238] to `CCNc1cc(Nc2ccn3nccc3n2)ncc1C(=O)NC[C@@H](F)C(C)(C)O` [Example 239], the IC50 falls from 595 nM to 379 nM (1.6-fold).

First: CC(C)(O)[C@H](F)CNC(=O)c1cnc(Nc2ccn3nccc3n2)cc1NC1CCC1 [Example 241]
Second: CC(C)(O)[C@H](F)CNC(=O)c1cnc(Nc2nc3ccnn3cc2F)cc1N[C@H]1CCC[C@@H]1O [Example 466]
The IC50 of the first is 2.4-fold higher: 516 nM for the first, 212 nM for the second. The second is the more potent here.

`Cc1cc2nc(Nc3cc(NC(C)C)c(C(=O)NC[C@@H](F)C(C)(C)O)cn3)ccn2n1` [Example 250] and `CC(C)Nc1cc(Nc2ncc3ncccc3n2)ncc1C(=O)NC[C@@H](F)C(C)(C)O` [Example 370] are within 1.5-fold of each other in IC50: 748 nM for the first, 571 nM for the second.

Going from `Cc1cnc2ccc(Nc3cc(NC4CC4)c(C(=O)NC[C@@H](F)C(C)(C)O)cn3)nn12` [Example 276] to `CC(C)(O)[C@H](F)CNC(=O)c1cnc(Nc2ccc3ncoc3c2)cc1N[C@@H]1CCC[C@H]1O` [Example 336], the IC50 rises from 256 nM to 466 nM (1.8-fold).

`CN(C)C(=O)c1ccc(Nc2cc(Nc3ccc4ncsc4c3)ncc2C(=O)NC[C@@H](F)C(C)(C)O)cc1` [Example 323] and `CC(C)(O)[C@H](F)CNC(=O)c1cnc(Nc2ccc3ncsc3c2)cc1Nc1ccc(-c2cc[nH]n2)cc1` [Example 414] are within 1.5-fold of each other in IC50: 207 nM for the first, 256 nM for the second.

For `CC(C)Nc1cc(Nc2ncc3ncsc3c2F)ncc1C(=O)NC[C@@H](F)C(C)(C)O` [Example 440], the IC50 was 330 nM.

Same assay, conditions: Homo sapiens, PBMC, 5 h, read-out: Cell IC50

`CNC(=O)c1cnc(Nc2ccc3ncsc3c2)cc1N[C@@H](c1ccccc1)[C@H](O)CO` [Example 143] and `CNC(=O)c1cnc(Nc2ccc3ncsc3c2)cc1N[C@H](CO)c1ccccc1` [Example 145] are within 1.5-fold of each other in IC50: 295 nM for the first, 260 nM for the second.

Same assay, conditions: human PBMCs, 10 μg/ml lipoteichoic acid for 5 hours, IL-6 by ELISA; value without asterisk; read-out: Cell IC50

Going from `CC(O)([C@H](F)CNC(=O)c1cnc(Nc2ccc3ncsc3c2)cc1NC1CCCC1F)C(F)(F)F` (stereo in doubt) [Example 339] to `CC(C)(O)[C@H](F)CNC(=O)c1cnc(Nc2ccc3ncsc3c2)cc1NCC1CCCC1F` (stereo partly drawn) [Example 116], the IC50 falls from 460 nM to 296 nM (1.6-fold). The second is the more potent here.

`CC(O)([C@H](F)CNC(=O)c1cnc(Nc2ccc3ncsc3c2)cc1NC1CCCC1F)C(F)(F)F` (stereo in doubt) [Example 340] and `CC(C)(O)[C@H](F)CNC(=O)c1cnc(Nc2ccc3ncsc3c2)cc1NCC1CCCC1F` (stereo partly drawn) [Example 117] are within 1.5-fold of each other in IC50: 419 nM for the first, 363 nM for the second.

`CC(O)([C@H](F)CNC(=O)c1cnc(Nc2ccc3ncsc3c2)cc1NC1CCCC1F)C(F)(F)F` (stereo in doubt) [Example 341] and `CC(C)(O)[C@H](F)CNC(=O)c1cnc(Nc2ccc3ncsc3c2)cc1NCC1CCCC1F` (stereo partly drawn) [Example 118] are within 1.5-fold of each other in IC50: 97 nM for the first, 109 nM for the second.

Going from `CC(O)([C@H](F)CNC(=O)c1cnc(Nc2ccc3ncsc3c2)cc1NC1CCCC1F)C(F)(F)F` (stereo in doubt) [Example 342] to `CC(C)Nc1cc(Nc2ccc3ncsc3c2)ncc1C(=O)NC[C@@H](F)C(O)(C1CC1)C(F)(F)F` (stereo partly drawn) [Example 31], the IC50 rises from 71 nM to 249 nM (3.5-fold). The first is the more potent here.

Compared with `CC(C)Nc1cc(Nc2ccc3nsnc3c2)ncc1C(=O)NC[C@@H](F)C(O)C(C)C` (stereo partly drawn) [Example 22], `CC(C)(O)[C@H](F)CNC(=O)c1cnc(Nc2ccc3ncsc3c2)cc1NCC1CCCC1O` (stereo partly drawn) [Example 112] is 2.2-fold lower in IC50: 456 nM for the first, 203 nM for the second. The second is the more potent here.

Compared with `CC(C)Nc1cc(Nc2ccc3nsnc3c2)ncc1C(=O)NC[C@@H](F)C(O)C(C)C` (stereo partly drawn) [Example 23], `CC(C)(O)[C@H](F)CNC(=O)c1cnc(Nc2ccc3ncsc3c2)cc1NCC1CCCC1O` (stereo partly drawn) [Example 113] is 4.9-fold higher in IC50: 165 nM for the first, 803 nM for the second. The first is the more potent here.

Going from `CC(C)(O)[C@H](F)CNC(=O)c1cnc(Nc2ccc3ncsc3c2)cc1NCC1CCCC1O` (stereo partly drawn) [Example 114] to `CC(C)(O)[C@H](F)CNC(=O)c1cnc(Nc2ccc3ncsc3n2)cc1NC1CCOCC1F` (stereo partly drawn) [Example 418], the IC50 falls from 491 nM to 30 nM (16-fold). The second is the more potent here.

First: CC(C)(O)[C@H](F)CNC(=O)c1cnc(Nc2ccn3nccc3n2)cc1NC1CCC(F)(F)C1 (stereo partly drawn) [Example 242]
Second: CC(C)(O)[C@H](F)CNC(=O)c1cnc(Nc2ccn3nccc3n2)cc1NC1CCOCC1F (stereo partly drawn) [Example 249]
The IC50 of the first is 3.1-fold lower: 179 nM for the first, 554 nM for the second.

`CC(C)(O)[C@H](F)CNC(=O)c1cnc(Nc2ccn3nccc3n2)cc1NC1CCC(F)(F)C1` (stereo partly drawn) [Example 258] and `CC(C)(O)[C@H](F)CNC(=O)c1cnc(Nc2ccn3nccc3n2)cc1NC1CCOCC1F` (stereo partly drawn) [Example 266] are within 1.5-fold of each other in IC50: 432 nM for the first, 548 nM for the second.

Going from `CC(C)(O)[C@H](F)CNC(=O)c1cnc(Nc2ccn3nccc3n2)cc1NC1CCC(F)(F)C1` (stereo partly drawn) [Example 259] to `CC(C)(O)[C@H](F)CNC(=O)c1cnc(Nc2ccn3nccc3n2)cc1NC1CCOCC1F` (stereo partly drawn) [Example 270], the IC50 rises from 132 nM to 265 nM (2-fold). The first is the more potent here.

Compared with `CC(C)(O)[C@H](F)CNC(=O)c1cnc(Nc2ccn3nccc3n2)cc1NC1CCOCC1F` (stereo partly drawn) [Example 271], `CC(C)(O)[C@H](F)CNC(=O)c1cnc(Nc2nc3ccnn3cc2F)cc1NC1CCCC1F` (stereo partly drawn) [Example 463] is 1.6-fold higher in IC50: 128 nM for the first, 204 nM for the second.

First: Cc1cc2nc(Nc3cc(NC4CCC(F)C4)c(C(=O)NC[C@@H](F)C(C)(C)O)cn3)ccn2n1 (stereo partly drawn) [Example 380]
Second: CC(C)(O)[C@H](F)CNC(=O)c1cnc(Nc2nc3ccnn3cc2F)cc1NC1CCCC1F (stereo partly drawn) [Example 471]
The IC50 of the first is 2.6-fold lower: 468 nM for the first, 1200 nM for the second.

Compared with `CC(C)(O)[C@H](F)CNC(=O)c1cnc(Nc2ccc3ncccc3n2)cc1NC1CCCOC1` (stereo partly drawn) [Example 431], `CC(C)(O)[C@H](F)CNC(=O)c1cnc(Nc2nc3ccnn3cc2F)cc1NC1CCCC1O` (stereo partly drawn) [Example 464] is 3.8-fold higher in IC50: 220 nM for the first, 843 nM for the second. The first is the more potent here.

`CC(C)(O)[C@H](F)CNC(=O)c1cnc(Nc2ccc3ncccc3n2)cc1NC1CCCOC1` (stereo partly drawn) [Example 432] and `CC(C)(O)[C@H](F)CNC(=O)c1cnc(Nc2nc3ccnn3cc2F)cc1NC1CCCC1O` (stereo partly drawn) [Example 465] are within 1.5-fold of each other in IC50: 503 nM for the first, 388 nM for the second.

Compound `CC(C)(O)[C@H](F)CNC(=O)c1cnc(Nc2nc3ccnn3cc2F)cc1NC1CCCC1F` (stereo partly drawn) [Example 472] has an IC50 of 1360 nM.
